Reference: article PMC6289772 (Cancer, 2018)

Columns and labels:
[1] = Axitinib plasma pharmacokinetics, phase 1 trial; format: in vivo
[2] = Toxicity / dose-limiting toxicity evaluation, phase 1 trial; format: in vivo
[3] = test system: recurrent or refractory solid tumors; test: Tumor response assessment; format: in vivo, human (children and adolescents)
[4] = format: in vivo, human (children and adolescents)
[5] = cited from earlier work
[6] = median (range), Dose Level 2.4 mg/m^2, Day 1 (n=12)
[7] = median (range), Dose Level 3.2 mg/m^2, Day 1 (n=6)

## CNC(=O)c1ccccc1Sc1ccc2c(/C=C/c3ccccn3)n[nH]c2c1 [Axitinib]
[1]; Day 1, children <12 years
  median oral clearance CL/F: 28.6 L/h/m^2
[1]; Day 1, children ≥12 years
  median oral clearance CL/F: 19.7 L/h/m^2
[1]; Day 1, females
  median oral clearance CL/F: 19.7 L/h/m^2
[1]; Day 1, males
  median oral clearance CL/F: 24.2 L/h/m^2
[1]; human, plasma, oral
  half-life: 2.4 h
[1]; human, plasma, oral, 2.4 mg/m2, AUC0–8h, median (range), Dose Level 2.4 mg/m^2, Day 1 (n=12)
  AUC(0-t): 91 ng·h/mL
[1]; human, plasma, oral, 2.4 mg/m2, AUC0–8h, median (range), Dose Level 2.4 mg/m^2, Day 8 (n=12)
  AUC(0-t): 147 ng·h/mL
[1]; human, plasma, oral, 2.4 mg/m2, Cmax, median (range), Dose Level 2.4 mg/m^2, Day 1 (n=12)
  Cmax: 23.8 ng/mL
[1]; human, plasma, oral, 2.4 mg/m2, Cmax, median (range), Dose Level 2.4 mg/m^2, Day 8 (n=12)
  Cmax: 47.4 ng/mL
[1]; human, plasma, oral, 2.4 mg/m2, Half life, median (range), Dose Level 2.4 mg/m^2, Day 1 (n=12)
  half-life: 2.2 h
[1]; human, plasma, oral, 2.4 mg/m2, Half life, median (range), Dose Level 2.4 mg/m^2, Day 8 (n=12)
  half-life: 2.5 h
[1]; human, plasma, oral, 2.4 mg/m2, Tmax, median (range), Dose Level 2.4 mg/m^2, Day 1 (n=12)
  Tmax: 2 h
[1]; human, plasma, oral, 2.4 mg/m2, Tmax, median (range), Dose Level 2.4 mg/m^2, Day 8 (n=12)
  Tmax: 1.5 h
[1]; human, plasma, oral, 3.2 mg/m2, AUC0–8h, median (range), Dose Level 3.2 mg/m^2, Day 1 (n=6)
  AUC(0-t): 134 ng·h/mL
[1]; human, plasma, oral, 3.2 mg/m2, AUC0–8h, median (range), Dose Level 3.2 mg/m^2, Day 8 (n=5)
  AUC(0-t): 140 ng·h/mL
[1]; human, plasma, oral, 3.2 mg/m2, Cmax, median (range), Dose Level 3.2 mg/m^2, Day 1 (n=6)
  Cmax: 38 ng/mL
[1]; human, plasma, oral, 3.2 mg/m2, Half life, median (range), Dose Level 3.2 mg/m^2, Day 1 (n=6)
  half-life: 2.6 h
[1]; human, plasma, oral, 3.2 mg/m2, Half life, median (range), Dose Level 3.2 mg/m^2, Day 8 (n=5)
  half-life: 1.8 h
[1]; human, plasma, oral, 3.2 mg/m2, Tmax, median (range), Dose Level 3.2 mg/m^2, Day 1 (n=6)
  Tmax: 2 h
[1]; human, plasma, oral, 3.2 mg/m2, Tmax, median (range), Dose Level 3.2 mg/m^2, Day 8 (n=5)
  Tmax: 2 h
[1]; human, plasma, oral, half-life (range), all patients
  half-life: 0.7 to 5.2 h
[1]; human, plasma, oral, median half-life, Day 8, all patients
  half-life: 2.5 h
[1]; median (range), all patients
  accumulation ratio (day 8 AUC0–8h versus day 1 AUC0–8h): 1.8 (0.3 – 4.7)
[1]; [6]
  Cl/F: 28.0 (9.8–230.1) L/h
  Cl/m^2: 21.4 (6.0–230.1) L/h/m^2
  V/F: 74.9 (43.6–888.7) L
  V/m^2: 67.4 (39.1–888.7) L/m^2
[1]; [7]
  Cl/F: 32.6 (14.2–65.2) L/h
  Cl/m^2: 19.9 (11.4–61.5) L/h/m^2
  V/F: 99.4 (48.9–150.6) L
  V/m^2: 65.5 (39.1–101.6) L/m^2
[1]; median (range), Dose Level 3.2 mg/m^2, Day 8 (n=5)
  Cmax: 41.5 (15.5–76.5) ng/mL
[2]; human, in vivo
  Abdominal pain, Grade 2: 1
  Alanine aminotransferase increased, Grade 2: 1
  Anemia, Grade 1: 1
  Anorexia, Grade 1: 1
  Fatigue, Grade 1: 3
  Fatigue, Grade 2: 1
  Headache, Grade 2: 1
  Hemoglobin increased, Grade 1: 1
  Hemoglobin increased, Grade 2: 2
  Hemoglobin increased, Grade 3: 1
  Hypertension, Grade 2: 3
  Hypertension, Grade 3: 1
  Hypophosphatemia, Grade 1: 1
  Hypothyroidism, Grade 2: 2
  Leukopenia, Grade 1: 1
  Lipase increased, Grade 2: 2
  Lipase increased, Grade 3: 1
  Lymphopenia, Grade 1: 1
  Nausea, Grade 1: 1
  Nausea, Grade 2: 2
  Neutropenia, Grade 2: 2
  Palmar-plantar erythrodysesthesia syndrome, Grade 1: 1
  Palmar-plantar erythrodysesthesia syndrome, Grade 2: 1
  Proteinuria, Grade 1: 2
  Proteinuria, Grade 2: 1
  Vomiting, Grade 1: 1
[2]; human, in vivo, 1 cycle
  Anemia, Grade 1: 3
  Anemia, Grade 2: 2
  Hemoglobin increased, Grade 1: 3
  Hypertension, Grade 2: 4
  Hypophosphatemia, Grade 1: 2
  Hypothyroidism, Grade 1: 1
  Hypothyroidism, Grade 2: 2
  Leukopenia, Grade 1: 1
  Lipase increased, Grade 1: 1
  Lipase increased, Grade 2: 1
  Lymphopenia, Grade 1: 1
  Lymphopenia, Grade 2: 1
  Neutropenia, Grade 2: 1
  Palmar-plantar erythrodysesthesia syndrome, Grade 2: 2
  Proteinuria, Grade 1: 2
  Rash acneiform, Grade 1: 2
  Sore throat, Grade 1: 2
  Thrombocytopenia, Grade 1: 1
  Vomiting, Grade 1: 3
[2]; human, in vivo, po, 28 days
  recommended phase 2 dose (RP2D): 2.4 mg/m^2/dose
[2]; in vivo
  DLTs at dose level 1: No DLTs
  growth plate abnormalities (tibia radiograph): No growth plate abnormalities were observed
  number of grade 3 toxicities (non-dose limiting): three
[2]; orally twice daily, continuous 28-day cycles, children with refractory solid tumors
  maximum tolerated and recommended dose: 2.4 mg/m^2/dose
[3]; alveolar soft part sarcoma, 15 patients with reportable response
  patients with partial response: One patient
[3]; patient with alveolar soft part sarcoma, prior to clinical progression
  duration of partial response: 6 months
[4]; cycle 1 or between dose levels
  trends in AKI biomarkers (KIM-1, NGAL, IL-18) during axitinib therapy: no trends were identified
[4]; during axitinib therapy, not significant (P=0.30)
  increase in urine UPC ratio per cycle: 4%
[5]; PO BID
  maximum tolerated dose (MTD) in adults: 5 mg
[5]; adults
  median time to onset of grade 1–2 hypertension: 16 days
  median time to onset of grade ≥ 3 hypertension: 24 days
  patients with discontinuation due to axitinib related hypertension: < 1%
  patients with dose interruptions due to axitinib related hypertension: 12%
  patients with dose modification due to axitinib related hypertension: 5%
